From ChEMBL document CHEMBL3507680, “University of Dundee, Gates Library screen for HepG2 cell viability”

assay: Human HepG2 cell viability assay in 384 well format; assay type: toxicity, cell-based; set-up: dose 125 nL, time 70.5 hour; concentration not given beside the values; conditions: HepG2 cells, read-out: Inhibition

SMILES | cytotoxicity at 70.5 h [%]
CC(C)c1nc(CC(=O)Nc2nc(CN3CCCCCC3)cs2)cs1 | 16.6
Cc1nnc2n1CCN(Cc1nc(-c3ccoc3)no1)C2 | 13.6
CCCN(CC)c1ccc(C(=O)N2CCCC2c2cnn(C)c2)cn1 (stereo not drawn) | -5.94
CCOc1ncccc1NC(=O)c1cc(C)sc1C | -11
CS(=O)(=O)NCCC(=O)Nc1ccccc1N1CCc2ccccc21 | -22.1
COCC(O)CN1CCC(=O)N(Cc2ccco2)Cc2ccccc21 (stereo not drawn) | 26.6
O=C(NC1CCc2ccccc2C1)N1CCN(C(=O)C2CCC2)CC1 (stereo not drawn) | -5.12
CC(C)c1noc(CN2CCCC2c2noc(C(C)C)n2)n1 (stereo not drawn) | -9.32
CO[C@@H]1CC[C@H]2[C@H]1OCCN2Cc1ccc(F)c(F)c1 | -9.19
Cc1cnn(CCC(=O)NS(=O)(=O)N2CCc3ccccc32)c1 | -8.38
Cc1cnn(CC2CCCCN2Cc2ncc(C(C)(C)C)o2)c1 (stereo not drawn) | -7.03
CCC1CN(Cc2nnc(C3CC3)o2)CCN1CCOC (stereo not drawn) | 0.024
O=C(O)c1ccc(=O)n(CC(c2ccc(Cl)cc2)N2CCCCCC2)c1 (stereo not drawn) | -8.13
CN(C)C(=O)CN1C(=O)CCC12CCN(Cc1ccc(F)cc1)CC2 | 5.3
Cc1cc2c(cc1Cl)C=CC1(CCN(CC(=O)N3CCOCC3)CC1)O2 | 25.7
Cc1nn(C)cc1C(=O)N1C[C@H]2CC[C@@H]1CN(S(=O)(=O)N(C)C)C2 | -4.81
c1cnc(Nc2ccc(C3CCCCN3Cc3ccncc3)cn2)nc1 (stereo not drawn) | -6.32
COCCNC(=O)c1sc2ccccc2c1C1CCC(CN)CC1 (stereo not drawn) | -1.66
COc1cccc(CN(C)C(=O)Nc2ccc3c(c2)OCCO3)c1 | 12.4
Cc1cnc(C(=O)NCC(c2ccc(C)o2)N2CCOCC2)cn1 (stereo not drawn) | 10.4
O=C(NCCSCc1cccs1)C1CCCN(C(=O)N2CCCC2)C1 (stereo not drawn) | -6.45
CCNc1nc(C)c(C(=O)N(C)Cc2nc(-c3ccncc3)no2)s1 | 1.19
CC(=O)N1C[C@@H](F)[C@@H](OCc2nc3ccc(C#N)cc3[nH]2)C1 | -1.65

SMILES | cytotoxicity at 70.5 h [%]
CS(=O)(=O)N1CCC2(CC1)CC(OCC1CCOCC1)CO2 (stereo not drawn) | -7.58
N#Cc1cnc(NCc2ccc(C(=O)NC3CC3)cc2)c(Cl)c1 | -4.64
COCC[C@]1(O)CCN(Cc2ccccn2)C[C@H]1C | -0.199
Nc1nc2c(c3c1C(=O)NC3=O)CCC2 | -14.7
Cc1nc(CC(=O)N(CCN2CCOCC2)Cc2ccco2)c(C)s1 | -4.1
CCc1c(C(=O)N2CCCN(C(C)=O)CC2)cnn1C(C)(C)C | -0.109
Cn1cc(-c2nc(CN3CCn4c(nnc4C4CC4)C3)cs2)cn1 | -4.85
CCN(CC)C1CCN(C(=O)NCc2c(C)noc2C)CC1 | -7.03
N#Cc1ccc(C2CC(=O)Nc3c(C(=O)O)nsc32)cc1 (stereo not drawn) | -5.94
Cc1cccc(C2(C(=O)NCC3CN(C)CCO3)CC2)c1 (stereo not drawn) | 2.72
Cc1cc2nc(CO[C@H]3CN(C(=O)C4CC4)C[C@H]3F)[nH]c2cc1C | 27.1
CCN(CC1CCOC1)C(=O)c1ccc(N(C)C)cc1F (stereo not drawn) | -1.53
Cc1nc(CN2CCC3(CC2)CC(c2cccnc2)C(=O)N3C)cs1 (stereo not drawn) | -3.5
COc1cc(CNc2nc3c(c(=O)[nH]2)CCNC3)cc(OC)c1OC | -6.47
Clc1cc(N2CCN(C3CCOCC3)CC2)nc2[nH]ccc12 | -0.399
NC(=O)c1cnn2c(C3CCCN(C4CCOCC4)C3)ccnc12 (stereo not drawn) | -0.336
CCNC(=O)NC(=O)C(C)N1CCCc2cc(OC)ccc2C1 (stereo not drawn) | -10.4
O[C@@H]1C[C@@](CNCc2ccc(Cl)cc2)(COc2cccnc2)C[C@@H]1O | -10.2
c1cn(Cc2nnc(C3CCN(C4CCNCC4)CC3)n2C2CC2)cn1 | -1.79
CCCN(C)C(=O)c1cc(Br)cc(S(=O)(=O)N2CCOCC2)c1F | 6.3
CC(C1CC1)N(C(=O)CNc1ccc(C#N)cc1)C1CC1 (stereo not drawn) | -6.5
COC(=O)NCCC(=O)NC(c1ccc(Cl)cc1)C(F)(F)F (stereo not drawn) | -8.05
c1ccc(CN2CCc3nnc(CN4CCCCC4)n3CC2)nc1 | 3.32

SMILES | cytotoxicity at 70.5 h [%]
CNS(=O)(=O)c1cccc(C(C)NCc2ccsc2)c1 (stereo not drawn) | -0.542
C[C@@H]1CN(Cc2ccsc2)C[C@]12CCN(Cc1cccnc1)C2=O | 39
Cn1cc(CN2CCC(Cn3cc(-c4ccccc4)nn3)CC2)cn1 | -4.28
CN(C)c1ccccc1C(=O)N1CCOC2(CNCCOC2)C1 (stereo not drawn) | -2.92
CCN(Cc1cccc(NC(=O)COCCOC)c1)C(C)=O | 1.86
CCN(Cc1ccc2c(c1)OCO2)C(=O)Cn1cccnc1=O | -0.305
Cc1cc(CN2C[C@@H]3COC[C@@H](C(=O)N4CCCCO4)[C@@H]3C2)oc1C | -6.96
CCN(CC)c1ncc(Cl)c(C(=O)NC2CCC(O)CC2)n1 (stereo not drawn) | -0.431
C=C(C)CN1CCC(c2n[nH]c(C3CC3)n2)CC1 | 23.2
CCOc1ccc(CC(=O)N(CCC(=O)OC)CC2CCCO2)cc1 (stereo not drawn) | -14.3
CCN1CCC(NC(=O)CN2CCCC2Cn2cccn2)CC1 (stereo not drawn) | 32.9
Cc1cc(NCC(=O)NCC(F)(F)F)nc(-c2ccncc2)n1 | -8.33
CC(C)O[C@@H]1CC[C@H]2[C@H]1OCCN2C(=O)c1nn(C)c2ccccc12 | 1.07
N#Cc1c(C2CC2)cc(-c2ccc(F)c(F)c2)nc1N | -3.46
COC(=O)CNC(=O)CC1COc2ccc(C(=O)N(C)C)cc2N1C (stereo not drawn) | -2.55
O=C(c1ccc[nH]1)N1CCc2c(COCc3ccncc3)cncc2C1 | -3.15
CN(C)CC1CSCCCN1C(=O)c1cccc(C(F)(F)F)c1 (stereo not drawn) | 3.74
Cc1cc(CN2CCC(C3Nc4ccccc4S(=O)(=O)N3)CC2)oc1C (stereo not drawn) | -3.27
CCc1cn[nH]c1C1CCCN(C(=O)c2cc(C#N)c(=O)[nH]c2C)C1 (stereo not drawn) | -22.8
COc1cc(F)ccc1C(C(=O)O)N(C)Cc1ccon1 (stereo not drawn) | -7.03
COC(=O)c1ccccc1NC(=O)c1nc2ccccc2n(C)c1=O | 32.8
CCOC(=O)C1CCCN(c2ccc(-c3nc(C)no3)cn2)C1 (stereo not drawn) | -4.38
Oc1nc(N2CCOCC2)nc2c1CCN(Cc1cccnc1)CC2 | -1.7

SMILES | cytotoxicity at 70.5 h [%]
Cc1cnc(CN(C)C2CCN(CCCc3ccccc3)C2)o1 (stereo not drawn) | 10
O=C(N1CCCC1)N1CCn2c(Cn3cccn3)cnc2C1 | -0.231
Cc1nc(CCNC(=O)Nc2cc(C(F)(F)F)c[nH]c2=O)cs1 | -6.32
CN(Cc1cccc(C(N)=O)c1)c1ncc(C(N)=O)cc1Cl | -9.7
CCCc1nc(N2CCCN3CCC[C@H]3C2)c2cnn(C)c2n1 | 15.2
CC(NCc1cccn1C)c1noc(-c2ccc(Cl)cc2)n1 (stereo not drawn) | -9.95
O=C(Nc1ccccc1C(=O)N1CCCC1)NC1CCOCC1 | -7.16
O=C1CSc2ccc(C(=O)N3CCCC(n4cccn4)C3)cc2N1 (stereo not drawn) | -0.55
CC(C)=CCC/C(C)=C\CNCc1ccco1 | 2.6
O=C(CCc1ccc(F)cc1)NS(=O)(=O)c1ccc2c(c1)OCCCO2 | 4.05
CCOc1ccc(N(C)Cc2nnc(C)o2)cc1 | 19.3
CSCc1cccc(C(=O)N2CCN(CC(C)O)CC2)c1 (stereo not drawn) | -14.6
O=C(NC1CCCC1)c1nc2c(o1)CN(C(=O)CO)C2 | -1.18
CCc1noc(CN(C)C(=O)COc2cccc(Cl)c2C)n1 | -6.73
O=C(CNC(=O)C1(c2ccc(F)cc2F)CCC1)Nc1cccnc1 | 31.2
CSCC(=O)NCc1cc(Br)ccc1OC(F)F | -5.17
CCCNC(=O)C1(CC2CC(c3ccccc3OC)=NO2)CCOCC1 (stereo not drawn) | 6.7
O=C(NC[C@]12COC[C@H]1CN(Cc1ccco1)C2)c1ccccc1 | -14.6
Cc1cc(N2CCC3(CCC(=O)N(CCCO)C3)CC2)nc(N(C)C)n1 | -2.5
Cc1cc2nc(C(C)C)cc(N3CCC(N(C)C)C3)n2n1 (stereo not drawn) | 2.59
COC(=O)c1ccc(NC(=O)CNCc2ccco2)cc1 | -5.33
O=C(CCn1cncn1)NCC(c1ccco1)N1CCCCC1 (stereo not drawn) | 7
Cc1csc(C(C)(C)NCCNS(C)(=O)=O)n1 | 18.5

SMILES | cytotoxicity at 70.5 h [%]
CN(C)c1cc(C2CCCN2C(=O)c2noc3c2CCCC3)ccn1 (stereo not drawn) | -6.7
O=C(C1CC=CC1)N1C[C@H]2CN(Cc3ccncc3)C(=O)[C@H]2C1 | 2.42
NC(=O)C1CCN(C(=O)CCn2ccc3ccc(F)cc32)CC1 | -6.99
Cc1ncsc1C(=O)N(C)Cc1ccsc1 | -12.2
CC(=O)N1CCN(c2cc(-n3cccc3)ncn2)CC1 | -7.94
COCCc1noc(CN(C)C(=O)C2COc3ccccc3C2)n1 (stereo not drawn) | -5.1
CC(Nc1nccc(CCC(F)(F)F)n1)c1nc(-c2ccccn2)no1 (stereo not drawn) | -2.61
c1ccc2c(N3CCSCC3)cnnc2c1 | -3.97
Cc1c(C(=O)N2CCC(C(=O)c3nc4ccccc4s3)CC2)cnn1C | -0.714
Cc1cc(C)n(CC2CCCN2CC(=O)Nc2nnc(C)s2)n1 (stereo not drawn) | 0.949
CCc1ncc2c(n1)CN(C(=O)c1c(C)[nH]c3c1C(=O)CCC3)C2 | 1.67
CN1CCC(c2cccc(Cc3ccc(F)cc3)n2)CC1 | -13.1
CN1CCN(Cc2ccccc2CNC(=O)c2cc(Cl)ccc2F)CC1 | -5.92
Cc1cc(Cl)ccc1S(=O)(=O)NCC(C)N1CCN(C)CC1 (stereo not drawn) | -0.894
Cn1nc(CNC(=O)c2cccc(C(F)(F)F)c2)c2c1CCOC2 | -3.96
CCc1ccccc1NC(=O)c1cnn(C)c1C | -7.12
c1ccc(NCc2ccsc2)c(Cn2cncn2)c1 | -15.1
CCNC(=O)NC(=O)CNC1(c2noc(C)n2)CCCC1 | 16.6
Cc1nc2c(c(=O)n1C)CCN(C(=O)CCc1ccccc1O)CC2 | -6.87
Cc1nc(N)sc1C(=O)N1CCCC(c2nccn2CCCN(C)C)C1 (stereo not drawn) | -5.45
CS(=O)(=O)N1CCC2(CC1)COC(COc1cccnc1)C2 (stereo not drawn) | -8.18
